Where “and” joins values, the source holds several entries; their conditions need not be identical. Equal entries are not always repeated.
Tests used:
[1] = system: high-fat diet (HFD)-induced obesity model mice; assay: Hepatic lipid analysis (total lipid, triglyceride, total cholesterol) in HFD mice; assay type: in vivo, C57BL/6J mice; set-up: Liver TC (Fig. 4c), individual mouse values / Liver TG (Fig. 4d), individual mouse values / Total lipid, liver (Fig. 4e), individual mouse values / Mean Diff., ND vs. treated (Fig. 4c) / Mean Diff., Vehicle vs. treated (Fig. 4c) / Mean (Fig. 4c) / Mean Diff., ND vs. treated (Fig. 4d) / Mean Diff., Vehicle vs. treated (Fig. 4d) / Mean (Fig. 4d) / Mean 2 (group mean), Fig. 4e / Mean Diff., Vehicle vs. treatment, Fig. 4e: unit not given here; conditions: for Mean Diff., ND vs. treated (Fig. 4c) / Mean Diff., Vehicle vs. treated (Fig. 4c) / Mean Diff., ND vs. treated (Fig. 4d) / Mean Diff., Vehicle vs. treated (Fig. 4d): Tukey's multiple comparisons test; for Mean (Fig. 4c) / Mean (Fig. 4d) / Mean 2 (group mean), Fig. 4e: group mean, n=10; for Mean 2 (group mean), Fig. 4e: Tukey test details; for Mean Diff., Vehicle vs. treatment, Fig. 4e: vehicle mean 33.43 minus group mean
Procedure: Frozen livers were homogenized with chloroform-methanol (2:1), and the chloroform layer into which the liver lipids were extracted was collected. This extract was used to measure hepatic total lipid, triglyceride (TG), and total cholesterol (TC) contents. […] The total liver lipid content was measured according to the method described by Forch et al.[19].
Fig. 4 Effects of TH analogs on the accumulation of lipids in mice. […] After 3 weeks of injection, serum and liver tissues were collected, and the amount of serum cholesterol (a), serum triglycerides (b), liver cholesterol (c), liver triglycerides (d), and liver total lipids (e) were measured.

THRα = conditions: cited from earlier work
full-length human THRα = molecular target: T1, full-length human THRα (Homo sapiens, UniProt P10827); assay: [125I]-T3-displacement assay, THRα; conditions: from IC50 values THRα vs THRβ
T1 sequence (P10827 1-410 isoform P10827-2): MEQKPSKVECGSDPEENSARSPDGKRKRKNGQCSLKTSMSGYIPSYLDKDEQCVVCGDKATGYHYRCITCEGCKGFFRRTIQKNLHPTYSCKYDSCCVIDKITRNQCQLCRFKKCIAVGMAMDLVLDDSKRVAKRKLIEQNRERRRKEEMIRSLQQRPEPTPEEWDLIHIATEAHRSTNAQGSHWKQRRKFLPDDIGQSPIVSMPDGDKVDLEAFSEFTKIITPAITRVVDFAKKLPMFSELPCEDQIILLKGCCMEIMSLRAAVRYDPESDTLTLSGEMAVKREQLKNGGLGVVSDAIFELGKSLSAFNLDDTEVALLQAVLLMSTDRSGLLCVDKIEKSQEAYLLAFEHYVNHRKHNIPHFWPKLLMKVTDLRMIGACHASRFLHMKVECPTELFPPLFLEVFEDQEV
Procedure: The coding sequences of full-length human THRα and THRβ were amplified by PCR.
The PCR products of THRα and β were cloned into EcoRI–KpnI and EcoRI–XbaI sites of pTNT (Promega), respectively. The resultant expression vectors, pTNT-THRα and pTNT-THRβ, were used for the synthesis of THRs by in vitro translation.
THRα and THRβ were synthesized by in vitro translation using TNT T7 Quick Coupled Transcription and Translation kit (Promega) according to the manufacturer’s protocol. After incubation at 30 °C for 90 min, the reaction mixtures were stored at −80 °C until use.
The reaction mixture was incubated overnight at 4 °C. A nitrocellulose membrane (Optitran, 0.45 μm in pore size, Whatman) pre-blocked by E-400 buffer was placed on a dot-blot apparatus (Minifold I, GE Healthcare), and the reaction mixtures were filtered through the membrane followed by three washes with 200 μL E-400 buffer. […] Radioactive signals were scanned using Typhoon FLA9000 (GE Healthcare) and quantified by Image Quant TL software (GE Healthcare). The IC50 values for each competitor were calculated by fitting the dose–response data to the log (inhibitor) vs. response (three parameters) model using GraphPad Prism (version 8.0; GraphPad Software).
Data are shown as mean ± SD (n = 3). Data were fitted to the log (inhibitor) vs. response (three parameters) model using GraphPad Prism (version 8.0; GraphPad Software).

[2] = system: left ventricular cardiomyocytes; assay: Trans-nuclear width of left ventricular cardiomyocytes (hematoxylin-eosin staining); conditions: for Mean Diff. (Vehicle vs. treated group): Vehicle minus treated, Tukey's multiple comparisons test; for Mean (group mean, Fig. 7c; Tukey's multiple comparisons test details) / Mean Diff. (Vehicle vs. treated group): Fig. 7c
Procedure: Male 7-week-old C57BL/6J mice were obtained from a local supplier (Nihon SLC, Shizuoka, Japan). The mice were individually housed in cages (Innocage; ORIENTAL GIKEN) at 23 °C with a 12-h-light–dark cycle starting at 08:00 a.m. […] The injection was prepared by dissolving the compounds in 0.5 N NaOH at a concentration of 100 mM, which was then further diluted with saline to a concentration of either 0.05 or 0.5 mM. The volume of the solution injected was determined based on the body weight of the animal, measured once a week, with 0.05 and 0.5 mM solutions injected at 0.1 and 1 µmol/kg day, respectively. Each group consisted of 10 animals, except for the ND (n = 8) and HFD with saline (vehicle, n = 9) groups. In the ND-treated group, one animal died during the experimental period, and one animal was excluded from the analysis after finding tumor-like lesions in the liver. In the HFD-treated group, one animal was excluded from the analysis because its body weight was less than two standard deviations below the mean.
Heart tissues were fixed, dehydrated, and permeated with paraffin using an automatic fixation and encapsulation device (Sakura Finetech, Japan). Paraffin blocks were prepared using Tissue Tech TEC 6 (Sakura Finetech, Japan), and 5 µm-thick transverse transmural sections were prepared with a microtome (Leica). The sections were deparaffinized, rehydrated, and immersed in Meyer’s hematoxylin solution (FUJIFILM Wako Pure Chemical Industries), followed by eosin staining. Sections were dehydrated and mounted using Entellan New (Merck). Sections were observed under a microscope (BX43; Olympus) at × 400 magnification and digital images were captured using cellSens (Olympus). 100 cells were randomly selected from the left ventricle of an individual mouse, and their trans-nuclear widths were measured according to Oláh et al.[23] using Image J (National Institute of Health).
Heart sections were prepared and subjected to hematoxylin–eosin staining. 100 cells were randomly selected from the left ventricle of an individual mouse, their trans-nuclear widths were measured, and average values were calculated. Data are shown as the mean ± SEM (n = 8–10). Significant differences among groups are indicated by asterisks (*P < 0.05, **P < 0.01, ***P < 0.001, and ****P < 0.0001, one-way ANOVA with Tukey’s post-hoc test) (c).

[3] = HFD mice, i.p., dose not given (0.1 or 1 µmol/kg day), 3 weeks

In the case of `Cc1cc(OCC(=O)O)cc(C)c1Cc1ccc(O)c(C(C)C)c1` [GC-1], the “Liver TC (Fig. 4c), individual mouse values” ([1]; 0.1 µmol, HFD mice) is reported as 1.641 and 1.677 and 1.869 and 2.323 and 2.266 and 1.713 and 1.915 and 2.417 and 2.05 and 2.041, the “Liver TG (Fig. 4d), individual mouse values” ([1]; 0.1 µmol, HFD mice) is reported as 24.1421 and 24.9345 and 16.7281 and 53.1111 and 43.7729 and 30.8738 and 30.6856 and 28.2214 and 34.8729 and 73.7669 and the “Total lipid, liver (Fig. 4e), individual mouse values” ([1]; 0.1 µmol, HFD mice) is reported as 14.6 and 17.3 and 14 and 22.6 and 24.3 and 18.1 and 18.3 and 16.9 and 17.5 and 26.9. The “Liver TC (Fig. 4c), individual mouse values” ([1]; 1 µmol, HFD mice) was 1.533 and 1.874 and 2.437 and 2.533 and 1.78 and 2.383 and 1.435 and 2.474 and 2.396 and 2.183, the “Liver TG (Fig. 4d), individual mouse values” ([1]; 1 µmol, HFD mice) was 36.2948 and 32.7305 and 46.4896 and 42.7911 and 37.2232 and 76.8394 and 41.2151 and 27.0034 and 47.7732 and 49.1408 and the “Total lipid, liver (Fig. 4e), individual mouse values” ([1]; 1 µmol, HFD mice) was 17.5 and 17.4 and 20.9 and 22.7 and 22.5 and 28.6 and 18.9 and 18.3 and 21 and 19.5. The “Mean Diff., ND vs. treated (Fig. 4c)” value ([1]; ND minus 0.1 µmol group) was -0.7328, the “Mean Diff., ND vs. treated (Fig. 4c)” value ([1]; ND minus 1 µmol group) was -0.8444 and the “Mean Diff., Vehicle vs. treated (Fig. 4c)” value ([1]; Vehicle minus 0.1 µmol group) was -0.4289. For the same molecule, the “Mean Diff., Vehicle vs. treated (Fig. 4c)” value ([1]; Vehicle minus 1 µmol group) was -0.5405, the “Mean (Fig. 4c)” value ([1]; 0.1 µmol, HFD mice) was 1.991 and the “Mean (Fig. 4c)” value ([1]; 1 µmol, HFD mice) was 2.103. The “Mean Diff., ND vs. treated (Fig. 4d)” value ([1]; ND minus 0.1 µmol group) was -7.809, the “Mean Diff., ND vs. treated (Fig. 4d)” value ([1]; ND minus 1 µmol group) was -15.45 and the “Mean Diff., Vehicle vs. treated (Fig. 4d)” value ([1]; Vehicle minus 0.1 µmol group) was 37.27. For the same molecule, the “Mean Diff., Vehicle vs. treated (Fig. 4d)” value ([1]; Vehicle minus 1 µmol group) was 29.63, the “Mean (Fig. 4d)” value ([1]; 0.1 µmol, HFD mice) was 36.11 and the “Mean (Fig. 4d)” value ([1]; 1 µmol, HFD mice) was 43.75. The “liver total lipids vs vehicle” value [1, 3] was “significantly decreased”, the “liver triglycerides vs vehicle” value [1, 3] was “significantly decreased” and the “Mean 2 (group mean), Fig. 4e” value ([1]; HFD mice, 0.1 µmol) was 19.05. For the same molecule, the “Mean Diff., Vehicle vs. treatment, Fig. 4e” value ([1]; HFD mice, 0.1 µmol) was 14.38, the “Mean 2 (group mean), Fig. 4e” value ([1]; HFD mice, 1 µmol) was 20.73 and the “Mean Diff., Vehicle vs. treatment, Fig. 4e” value ([1]; HFD mice, 1 µmol) was 12.7. The “lower affinity for THRα than T3” value (THRα) was 10 fold and the “affinity to THRα lower than that to THRβ” value (full-length human THRα) was “approximately 20 fold”.

For `O=C(O)Cc1cc(C(F)(F)F)c(Cc2ccc(O)c3ccccc23)c(C(F)(F)F)c1` [ZTA-261], the “cardiac width (Fig. 7c), individual values” ([2]; 0.1 µmol dose group) was 11.9852 and 12.1667 and 12.7952 and 11.4055 and 11.1301 and 11.9423 and 11.9907 and 12.4833 and 12.1061 and 13.5905, the “cardiac width (Fig. 7c), individual values” ([2]; 1 µmol dose group) was 12.0147 and 12.4259 and 11.3636 and 12.41 and 12.0185 and 12.8514 and 11.9471 and 13.2394 and 12.2836 and 12.7848 and the “Mean (group mean, Fig. 7c; Tukey's multiple comparisons test details)” value ([2]; HFD mice, dose 0.1 µmol) was 12.16. For the same molecule, the “Mean (group mean, Fig. 7c; Tukey's multiple comparisons test details)” value ([2]; HFD mice, dose 1 µmol) was 12.33, the “transnuclear width of left ventricular cardiomyocytes vs vehicle” value ([2]; HFD mice, i.p. 1 µmol/kg day, 3 weeks) was “significantly increased” and the “Mean Diff. (Vehicle vs. treated group)” value ([2]; dose 0.1 µmol) was -1.182. The “Mean Diff. (Vehicle vs. treated group)” value ([2]; dose 1 µmol) was -1.356.
